Laboratory results taken from patent US20130039998A1, “COMPOSITIONS OF MODULATORS OF THE WNT/BETA-CATENIN PATHWAY AND BENZAMIDE AND/OR HYDROXAMIC ACID DERIVATIVES TO TREAT BIPOLAR DISORDER” (UNIVERSITY OF WASHINGTON, priority 2008, published 2013).
Entries after “also recorded” stand apart in the source; their conditions may differ. Values belong to the compound of their own block, whether it stands above or below them.

How the values were obtained:
GSK-3 = conditions: from Ring et al. 2003 / Cline et al. 2002, cited from earlier work; for EC50: read-out: half-maximal effective concentration [EC50]
[1] = system: Wnt/β-catenin signalling (TCF/LEF transcription), HEK-293T cells; experiment: pBARLS beta-catenin activated reporter (TCF/LEF transcription) in HEK-293T cells; format: cell-based, human; conditions: for activation of pBARLS reporter, compound alone (FIG. 3B) / activation of pBARLS reporter in the presence of lithium (FIG. 3B): HEK293T, dose response; for activation of pBAR reporter (FIG. 1B): HEK-293T cells (human); for activation of pBARLS reporter in the presence of lithium: 25 μM compound plus lithium 10 mM
Text: (§1) To monitor Wnt/β-catenin signalling the beta-catenin activated reporter (BAR) system developed at the laboratory of Randall Moon, University of Washington, Seattle, Wash., was used. The BAR system contains a concatemer of twelve TCF (T-cell factor) response elements separated by unique five nucleotide linkers specifically designed to minimize recombination that can lead to loss of TCF binding sites. This series of TCF response elements is inserted upstream of Promega's minP minimal promoter completing a functional promoter that drives the transcription of firefly luciferase (pBARLS) along with a PGK promoter driving a puromycin selectable maker. These reporters were inserted between the LTRs (long terminal repeats) of a lentiviral transducing plasmid. […] The pfuBARS reporter is identical to their respective parent reporter with the exception that each TCF DNA binding element contains a two-base substitution conferring a non-functional element. The essentially identical nature of the control reporters provides the most optimal experimental control, as well as allowing for identical lentiviral titer production when generated side by side with the responsive reporter.
(§2) Cells were plated, treated, and the luciferase activity measured in a 384-well plate. The volume of culture media in each well prior to measuring luciferase activity was 40 μL. After incubation with compounds, 10 μL of Promega Firefly luciferase reagent was added using a liquid dispenser and incubated for 10 minutes at room temperature. Total luminescence was read on an Envision (Perkin Elmer) plate reader. Data was expressed relative to baseline of adding DMSO alone.

[2] = system: Wnt/β-catenin signalling (TCF/LEF transcription), HT22 cells; experiment: pBARLS beta-catenin activated reporter (TCF/LEF transcription) in HT22 cells; format: cell-based, mouse; conditions: for activation of pBAR reporter (FIG. 1B): HT22 cells (mouse); for activation of pBARLS reporter in the presence of lithium / activation of transcription of pBARLS reporter, compound alone: HT22, 24 hr; for activation of pBARLS reporter in the presence of lithium: 25 μM compound plus lithium 10 mM; for activation of transcription of pBARLS reporter, compound alone: lithium 10 mM, MS-275, CI-994, SAHA 25 μM
Text: as §1, §2

HDAC1 = molecular target: T1, HDAC1 (Homo sapiens, UniProt Q13547); experiment: Fluorimetric deacetylase assay, HDAC1; format: biochemical; conditions: Class I; avg n = 2 with class-specific substrates
T1 construct: purchased BPS Biosciences

HDAC5 = molecular target: T2, HDAC5 (Homo sapiens, UniProt Q9UQL6); experiment: Fluorimetric deacetylase assay, HDAC5; format: biochemical; conditions: Class IIa
T2 construct: purchased BPS Biosciences

HDAC6 = HDAC6 (Homo sapiens, UniProt Q9UBN7); experiment: Fluorimetric deacetylase assay, HDAC6; format: biochemical
Text: (§3) To measure the effects of compounds on HDAC activity, a homogenous, fluorimetric deacetylase assay miniaturized to 384-well plate format was used. To perform this assay, a buffered solution containing a recombinant human deacetylase was transferred to a microtiter plate using a robotic plate-filler.
(§4) Following compound transfer, a second buffered solution was transferred containing trypsin and a class-specific, tripeptide substrate (AcK-AMC) terminating in an acetyl-lysine, which is amide-coupled to 7-amino-4-methylcoumarin (AMC). Following substrate hydrolysis by the deacetylase, trypsin cleaves the terminal amide bond releasing AMC. With an excitation/emission maximum of 350-380/440-460 nm, AMC fluorescence is captured by a multilabel plate reader. For a kinetic version of the assay, fluorescence measurements was recorded every 0.5-5 minutes over 60 minutes. Data were plotted on a well-by-well basis to measure the slope of increasing fluorescence over time, corresponding to enzymatic activity. HDAC enzymes used were commercially-available (BPS Biosciences San Diego, Calif.).

[3] = system: pfuBARS control reporter (non-functional TCF elements), HEK-293T cells
Text: as §1, §2

[4] = system: T3, class I and class II HDACs; experiment: In vitro class I and class II HDAC inhibition; format: biochemical, human; conditions: compared with valproate
T3 construct: other: HDAC1/2/3 together; other: compared with valproate
Text: as §3, §4

[5] = listed as Wnt3a conditioned media

T2 sequence (Q9UQL6 whole entry): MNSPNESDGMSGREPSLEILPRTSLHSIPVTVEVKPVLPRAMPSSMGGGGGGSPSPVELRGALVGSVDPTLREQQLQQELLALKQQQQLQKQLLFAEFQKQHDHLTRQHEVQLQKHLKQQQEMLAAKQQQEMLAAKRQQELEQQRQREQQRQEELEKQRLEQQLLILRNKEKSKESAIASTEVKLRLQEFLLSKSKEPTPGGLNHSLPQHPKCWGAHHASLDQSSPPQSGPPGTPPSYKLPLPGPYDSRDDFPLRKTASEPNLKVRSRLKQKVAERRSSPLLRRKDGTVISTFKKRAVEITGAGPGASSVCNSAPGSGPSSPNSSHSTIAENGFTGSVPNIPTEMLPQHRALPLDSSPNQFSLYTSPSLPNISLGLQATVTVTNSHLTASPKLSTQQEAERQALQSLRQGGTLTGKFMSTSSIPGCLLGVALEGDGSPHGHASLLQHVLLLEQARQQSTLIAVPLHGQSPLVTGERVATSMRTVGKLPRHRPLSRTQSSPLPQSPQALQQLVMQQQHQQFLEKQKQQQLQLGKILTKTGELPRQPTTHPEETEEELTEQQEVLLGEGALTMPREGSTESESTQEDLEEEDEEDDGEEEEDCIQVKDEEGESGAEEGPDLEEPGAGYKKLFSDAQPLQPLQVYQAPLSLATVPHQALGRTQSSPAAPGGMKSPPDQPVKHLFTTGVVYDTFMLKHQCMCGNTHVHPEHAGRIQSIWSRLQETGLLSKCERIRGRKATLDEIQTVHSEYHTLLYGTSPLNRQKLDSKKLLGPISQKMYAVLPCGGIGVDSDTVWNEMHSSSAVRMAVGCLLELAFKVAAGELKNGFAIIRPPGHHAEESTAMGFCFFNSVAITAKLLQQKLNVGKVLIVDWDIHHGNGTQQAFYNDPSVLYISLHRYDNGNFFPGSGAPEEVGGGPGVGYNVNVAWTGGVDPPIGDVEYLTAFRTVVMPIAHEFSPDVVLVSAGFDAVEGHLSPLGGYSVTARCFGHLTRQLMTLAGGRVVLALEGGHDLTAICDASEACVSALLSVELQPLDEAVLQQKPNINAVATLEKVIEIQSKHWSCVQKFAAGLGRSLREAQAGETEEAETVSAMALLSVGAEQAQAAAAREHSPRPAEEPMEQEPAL
T1 sequence (Q13547 whole entry): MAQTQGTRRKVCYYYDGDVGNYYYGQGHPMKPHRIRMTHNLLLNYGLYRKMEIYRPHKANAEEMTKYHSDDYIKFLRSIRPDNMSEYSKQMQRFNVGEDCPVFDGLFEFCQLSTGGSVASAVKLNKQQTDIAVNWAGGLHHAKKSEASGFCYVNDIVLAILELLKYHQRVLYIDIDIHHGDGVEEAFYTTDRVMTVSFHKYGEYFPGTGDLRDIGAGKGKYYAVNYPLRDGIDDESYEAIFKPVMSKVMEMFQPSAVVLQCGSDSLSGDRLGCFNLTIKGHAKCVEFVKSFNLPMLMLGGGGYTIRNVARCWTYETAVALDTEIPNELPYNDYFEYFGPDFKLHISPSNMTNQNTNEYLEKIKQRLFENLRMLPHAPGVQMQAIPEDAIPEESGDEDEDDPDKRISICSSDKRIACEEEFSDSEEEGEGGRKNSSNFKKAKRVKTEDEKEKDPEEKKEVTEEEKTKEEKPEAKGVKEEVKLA
HDAC6, sequence (Q9UBN7 whole entry): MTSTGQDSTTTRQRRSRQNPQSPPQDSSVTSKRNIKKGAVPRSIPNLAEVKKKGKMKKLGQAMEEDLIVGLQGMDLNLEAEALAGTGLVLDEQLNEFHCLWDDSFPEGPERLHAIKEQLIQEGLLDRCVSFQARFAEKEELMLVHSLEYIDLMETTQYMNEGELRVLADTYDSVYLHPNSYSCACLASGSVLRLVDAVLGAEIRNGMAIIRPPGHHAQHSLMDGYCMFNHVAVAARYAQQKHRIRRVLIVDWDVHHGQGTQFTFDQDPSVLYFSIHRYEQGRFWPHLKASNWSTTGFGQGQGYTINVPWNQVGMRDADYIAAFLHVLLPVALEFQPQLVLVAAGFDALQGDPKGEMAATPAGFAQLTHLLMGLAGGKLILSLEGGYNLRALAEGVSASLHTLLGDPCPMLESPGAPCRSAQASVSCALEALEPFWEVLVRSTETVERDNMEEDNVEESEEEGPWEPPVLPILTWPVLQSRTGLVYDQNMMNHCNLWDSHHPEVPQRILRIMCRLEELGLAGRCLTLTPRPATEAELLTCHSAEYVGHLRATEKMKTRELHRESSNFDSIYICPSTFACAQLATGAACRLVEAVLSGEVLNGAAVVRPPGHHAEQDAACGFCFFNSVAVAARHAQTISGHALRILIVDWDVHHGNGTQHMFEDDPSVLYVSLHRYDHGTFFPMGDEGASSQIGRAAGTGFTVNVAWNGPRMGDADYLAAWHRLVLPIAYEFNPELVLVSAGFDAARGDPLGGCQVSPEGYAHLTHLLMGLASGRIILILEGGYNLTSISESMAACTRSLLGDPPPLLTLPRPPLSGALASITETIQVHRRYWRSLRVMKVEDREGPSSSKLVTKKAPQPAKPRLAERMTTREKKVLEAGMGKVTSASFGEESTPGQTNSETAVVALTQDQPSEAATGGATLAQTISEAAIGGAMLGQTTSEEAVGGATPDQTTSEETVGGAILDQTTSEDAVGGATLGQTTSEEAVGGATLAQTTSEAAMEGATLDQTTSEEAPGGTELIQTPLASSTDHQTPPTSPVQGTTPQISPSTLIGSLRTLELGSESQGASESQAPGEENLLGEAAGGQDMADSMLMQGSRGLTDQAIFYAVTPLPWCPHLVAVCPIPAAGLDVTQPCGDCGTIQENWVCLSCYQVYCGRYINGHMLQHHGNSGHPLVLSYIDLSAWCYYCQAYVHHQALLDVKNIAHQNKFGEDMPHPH

Compound: Cc1[nH]c2ccccc2c1CCNCc1ccc(/C=C/C(=O)NO)cc1 [panobinostat]
activation of pBARLS reporter, compound alone (FIG. 3B) ([1]; 24 hr, alone): activation on their own | activation of pBARLS reporter in the presence of lithium (FIG. 3B) ([1]; 24 hr, lithium 10 mM): synergistic activation | potency relative to SAHA (dose responses, FIG. 3) ([1]; pBARLS reporter dose response): more potent than SAHA

Compound: Wnt3a
activation of pBAR reporter (FIG. 1B) [1]: activation | activation of pBAR reporter (FIG. 1B) [1, 5]: capable of responding | activation of pBAR reporter (FIG. 1B) [2]: activation | activation of pBAR reporter (FIG. 1B) [2, 5]: capable of responding

Compound: O=C(CCCCCCC(=O)Nc1ccccc1)NO [SAHA]
activation of pBARLS reporter in the presence of lithium ([1]; HEK-293T, 24 hr): strong synergistic activation of transcription; also recorded: strong synergy | activation of pBARLS reporter in the presence of lithium [2]: strong synergistic activation of transcription | activation of transcription of pBARLS reporter, compound alone [2]: unable to activate transcription

IC50 (HDAC1): 27 µM | IC50 (HDAC5): > 10000 µM | IC50 (HDAC6): > 10000 µM
Compound: CCCC(CCC)C(=O)O [valproate]

Compound: O=[N+]([O-])c1ccc(NCCNc2ncc(-c3ncc[nH]3)c(-c3ccc(Cl)cc3Cl)n2)nc1 [CHIR-837]
selectivity for GSK-3 (GSK-3): > 5,000 fold | EC50 (GSK-3): 0.375 µM

Compound: CC(=O)Nc1ccc(C(=O)Nc2ccccc2N)cc1 [CI-994]
activity in pfuBARS control reporter, compound alone [3]: no activity | activity in pfuBARS control reporter in the presence of lithium [3]: no activity | potency on class I HDACs in comparison to valproate [4]: much more potent

Compound: Nc1ccccc1NC(=O)c1ccc(CNC(=O)OCc2cccnc2)cc1 [MS-275]
activation of pBARLS reporter, compound alone (FIG. 3B) ([1]; 24 hr, alone): activation on their own | activation of pBARLS reporter in the presence of lithium (FIG. 3B) ([1]; 24 hr, lithium 10 mM): synergistic activation | activation of pBARLS reporter in the presence of lithium ([1]; HEK-293T, 24 hr): strong synergistic activation of transcription; also recorded: strong synergy | activation of transcription of pBARLS reporter, compound alone ([1]; HEK-293T, 24 hr, lithium 10 mM, MS-275, CI-994, SAHA 25 μM, alone): activated transcription of the reporter; also recorded: activate transcription on their own | activation of pBARLS reporter in the presence of lithium [2]: strong synergistic activation of transcription | activation of transcription of pBARLS reporter, compound alone [2]: partially capable of activating transcription; also recorded: capable of activating transcription on its own | activity in pfuBARS control reporter, compound alone [3]: no activity | activity in pfuBARS control reporter in the presence of lithium [3]: no activity
